Here are results for ten molecules from publication PMC6044785 (ACS Omega, 2017).

Where two headings read alike, the source gives them in different places. Square brackets hold non-standard residues; d marks the D form. Peptide text beside a SMILES is read from it. Gly(But-3-enyl) = C=CCC[C@H](N)C(=O)O; Aib = CC(C)(N)C(=O)O A value given as a limit tells only on which side of the number the result lay.

For one assay, the target named is HDAC1 (Homo sapiens, UniProt Q13547). The experiment in a line: HDAC1 enzymatic inhibition assay. The assay is classed as biochemical.
The test system of another assay is HeLa. The experiment in a line: Antiproliferative activity on HeLa cells. The assay is classed as cell-based, human. To be noted: 72 h, read-out: GI50 (μM) HeLa.
The target of a further assay is T1, HDAC6 (Homo sapiens, UniProt Q9UBN7).
T1 sequence (Q9UBN7 1-1215): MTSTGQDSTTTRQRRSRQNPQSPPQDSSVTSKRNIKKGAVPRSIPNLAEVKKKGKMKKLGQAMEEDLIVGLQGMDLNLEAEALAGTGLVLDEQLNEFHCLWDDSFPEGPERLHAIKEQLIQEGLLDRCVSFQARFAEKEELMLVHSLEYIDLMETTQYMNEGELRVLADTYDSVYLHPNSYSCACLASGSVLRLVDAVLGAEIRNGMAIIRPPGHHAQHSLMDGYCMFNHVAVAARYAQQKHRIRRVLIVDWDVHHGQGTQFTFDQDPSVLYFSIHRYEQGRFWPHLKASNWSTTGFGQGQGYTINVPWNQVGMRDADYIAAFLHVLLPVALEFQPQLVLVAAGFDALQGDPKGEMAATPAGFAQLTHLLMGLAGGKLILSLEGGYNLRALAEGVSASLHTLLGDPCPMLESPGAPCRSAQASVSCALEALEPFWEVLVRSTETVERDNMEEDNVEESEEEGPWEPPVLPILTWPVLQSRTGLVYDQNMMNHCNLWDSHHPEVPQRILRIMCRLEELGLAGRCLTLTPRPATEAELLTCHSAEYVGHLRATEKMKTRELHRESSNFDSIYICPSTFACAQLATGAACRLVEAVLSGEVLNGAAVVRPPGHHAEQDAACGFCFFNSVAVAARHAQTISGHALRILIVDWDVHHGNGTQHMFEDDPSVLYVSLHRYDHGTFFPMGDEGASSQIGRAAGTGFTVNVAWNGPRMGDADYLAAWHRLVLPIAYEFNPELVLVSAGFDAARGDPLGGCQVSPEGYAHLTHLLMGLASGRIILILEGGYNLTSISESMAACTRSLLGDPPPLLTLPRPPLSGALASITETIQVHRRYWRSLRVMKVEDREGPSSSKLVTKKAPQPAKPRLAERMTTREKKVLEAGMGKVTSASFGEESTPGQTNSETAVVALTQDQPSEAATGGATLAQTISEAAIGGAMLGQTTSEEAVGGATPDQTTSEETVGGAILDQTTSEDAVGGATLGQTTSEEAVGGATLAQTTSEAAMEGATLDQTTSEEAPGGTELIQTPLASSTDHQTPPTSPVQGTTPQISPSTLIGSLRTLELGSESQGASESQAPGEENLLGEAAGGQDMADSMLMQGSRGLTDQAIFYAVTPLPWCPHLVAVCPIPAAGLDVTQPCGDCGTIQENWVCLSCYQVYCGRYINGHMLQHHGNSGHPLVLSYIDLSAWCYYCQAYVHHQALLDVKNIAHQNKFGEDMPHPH
The experiment in a line: HDAC6 enzymatic inhibition assay. The assay is classed as biochemical.

The subject of assay [1] is K562. As to conditions: read-out: GI50 (μM) K562; Table 3; ref [22]; cited from earlier work.
A further assay has as its system HEK293. As to the kind of experiment: Antiproliferative activity on HEK293 cells. To be noted: read-out: GI50 (μM) HEK293. The assay is classed as cell-based, human.
In a further assay the test system is HeLa nuclear extract. As to the kind of experiment: HDAC inhibition assay with HeLa nuclear extract. To be noted: read-out: IC50 (μM) HeLa nuclear extract; Table 1; mean ± SD of three independent experiments; >100 = not active (inhibition < 50% at 100 μM). The assay is classed as biochemical, human.
Another assay concerns T. gondii RH strain. To be noted: read-out: IC50 T. gondii RH strain; ref [22]; cited from earlier work.
For another assay, the target named is HDAC4 (Homo sapiens, UniProt P56524). As to the kind of experiment: HDAC4 enzymatic inhibition assay. The assay is classed as biochemical.
Another assay concerns the target T2, HDAC8 (Homo sapiens, UniProt Q9BY41).
T2 sequence (Q9BY41 1-377): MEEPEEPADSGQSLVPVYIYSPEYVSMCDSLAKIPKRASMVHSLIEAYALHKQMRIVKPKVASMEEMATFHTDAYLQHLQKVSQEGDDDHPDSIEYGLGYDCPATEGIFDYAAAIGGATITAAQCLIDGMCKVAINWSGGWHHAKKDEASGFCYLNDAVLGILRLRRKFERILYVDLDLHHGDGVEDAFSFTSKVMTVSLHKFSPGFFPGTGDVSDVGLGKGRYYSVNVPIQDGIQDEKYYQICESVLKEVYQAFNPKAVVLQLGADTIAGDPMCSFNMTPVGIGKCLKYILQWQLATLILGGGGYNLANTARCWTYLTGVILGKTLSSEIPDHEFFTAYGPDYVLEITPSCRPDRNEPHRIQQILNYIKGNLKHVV
The experiment in a line: HDAC8 enzymatic inhibition assay. The assay is classed as biochemical.

A further assay addresses HDAC3/NCOR2 (Homo sapiens, UniProt O15379). The experiment in a line: HDAC3/NCOR2 enzymatic inhibition assay. Type of assay: biochemical.
Assay [2] relates to Jurkat. As to conditions: read-out: GI50 (μM) Jurkat; Table 3; ref [22]; cited from earlier work.
Assay [3] has as its system P. falciparum. To be noted: read-out: GI50 (μM) P. falciparum; Table 3; ref [22]; cited from earlier work.
Assay [4] has as its system P. falciparum. As to the kind of experiment: P. falciparum [3H]-hypoxanthine incorporation assay. The assay is classed as cell-based, Plasmodium falciparum 3D7 strain. As to conditions: Plasmodium falciparum, 3D7, read-out: GI50 (μM) P. falciparum.
Assay [5] has as its system K562. The experiment in a line: Antiproliferative activity on K562 cells. Type of assay: cell-based. To be noted: Homo sapiens, K562, read-out: GI50 (μM) K562.
Assay [6] relates to Jurkat. As to the kind of experiment: Antiproliferative activity on Jurkat cells. Type of assay: cell-based. To be noted: Homo sapiens, read-out: GI50 (μM) Jurkat.
The subject of a further assay is normal B lymphocytes. As to the kind of experiment: Antiproliferative activity on normal B lymphocytes. Type of assay: cell-based. As to conditions: Homo sapiens, Lymphocyte, 72 h, read-out: GI50 normal B lymphocytes.

HDAC3/NCOR2, sequence (O15379 whole entry): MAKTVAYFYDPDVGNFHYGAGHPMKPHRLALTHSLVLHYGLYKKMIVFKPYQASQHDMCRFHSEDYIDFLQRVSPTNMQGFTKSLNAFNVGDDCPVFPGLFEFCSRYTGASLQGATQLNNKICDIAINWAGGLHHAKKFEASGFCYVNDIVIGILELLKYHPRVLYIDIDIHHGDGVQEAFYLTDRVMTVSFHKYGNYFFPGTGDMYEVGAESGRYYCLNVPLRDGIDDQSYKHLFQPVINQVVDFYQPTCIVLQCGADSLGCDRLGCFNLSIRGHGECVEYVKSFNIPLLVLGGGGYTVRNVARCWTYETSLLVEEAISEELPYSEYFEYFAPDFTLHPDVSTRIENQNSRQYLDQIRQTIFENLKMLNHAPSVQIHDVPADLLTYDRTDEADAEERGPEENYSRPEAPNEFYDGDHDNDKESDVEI
HDAC3/NCOR2, sequence (Q9Y618 395-489 partner limits assumed): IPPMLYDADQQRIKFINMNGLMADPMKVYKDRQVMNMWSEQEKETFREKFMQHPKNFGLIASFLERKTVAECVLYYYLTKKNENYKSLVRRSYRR
HDAC4, sequence (P56524 whole entry): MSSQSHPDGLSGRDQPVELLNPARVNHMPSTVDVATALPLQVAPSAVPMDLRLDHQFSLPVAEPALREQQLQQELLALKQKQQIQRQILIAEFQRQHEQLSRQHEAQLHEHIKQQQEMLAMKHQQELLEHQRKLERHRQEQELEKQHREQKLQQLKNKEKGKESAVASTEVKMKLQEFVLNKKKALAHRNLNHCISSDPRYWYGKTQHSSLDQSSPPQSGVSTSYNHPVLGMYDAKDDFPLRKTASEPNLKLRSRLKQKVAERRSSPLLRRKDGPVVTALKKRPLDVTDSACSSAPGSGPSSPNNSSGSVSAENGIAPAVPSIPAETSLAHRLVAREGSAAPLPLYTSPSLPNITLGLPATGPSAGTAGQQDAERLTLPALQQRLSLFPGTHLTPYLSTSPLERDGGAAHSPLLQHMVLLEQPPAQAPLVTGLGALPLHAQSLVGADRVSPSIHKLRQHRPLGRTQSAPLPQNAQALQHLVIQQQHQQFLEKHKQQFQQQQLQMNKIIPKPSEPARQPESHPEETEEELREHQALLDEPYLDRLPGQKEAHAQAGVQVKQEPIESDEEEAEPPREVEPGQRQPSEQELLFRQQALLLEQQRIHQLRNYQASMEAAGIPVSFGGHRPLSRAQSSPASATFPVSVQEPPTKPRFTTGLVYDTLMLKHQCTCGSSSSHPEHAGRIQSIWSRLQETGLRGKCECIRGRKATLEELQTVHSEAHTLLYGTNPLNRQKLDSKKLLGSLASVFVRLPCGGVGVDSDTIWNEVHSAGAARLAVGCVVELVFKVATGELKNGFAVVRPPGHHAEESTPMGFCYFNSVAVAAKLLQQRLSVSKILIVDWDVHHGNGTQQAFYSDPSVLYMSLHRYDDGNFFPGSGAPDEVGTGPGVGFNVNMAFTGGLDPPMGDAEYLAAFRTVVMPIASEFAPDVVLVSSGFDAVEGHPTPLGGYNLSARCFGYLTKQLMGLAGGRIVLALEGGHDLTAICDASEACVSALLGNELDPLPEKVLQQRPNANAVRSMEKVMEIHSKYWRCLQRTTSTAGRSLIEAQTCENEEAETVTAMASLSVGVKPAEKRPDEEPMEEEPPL
HDAC1, sequence (Q13547 whole entry): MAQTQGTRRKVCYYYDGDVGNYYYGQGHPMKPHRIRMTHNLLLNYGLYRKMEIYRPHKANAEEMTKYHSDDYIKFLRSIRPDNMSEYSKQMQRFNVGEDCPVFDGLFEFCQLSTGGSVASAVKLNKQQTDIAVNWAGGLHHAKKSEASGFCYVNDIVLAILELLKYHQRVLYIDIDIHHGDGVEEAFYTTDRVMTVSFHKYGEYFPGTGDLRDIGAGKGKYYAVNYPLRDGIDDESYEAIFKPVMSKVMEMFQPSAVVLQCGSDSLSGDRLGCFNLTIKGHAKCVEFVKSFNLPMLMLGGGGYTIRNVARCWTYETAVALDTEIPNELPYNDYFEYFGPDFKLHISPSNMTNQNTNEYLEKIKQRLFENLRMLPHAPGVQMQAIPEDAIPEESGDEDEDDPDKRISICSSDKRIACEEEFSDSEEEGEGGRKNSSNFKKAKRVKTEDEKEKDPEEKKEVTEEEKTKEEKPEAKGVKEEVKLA

As usually defined, the IC50 is the concentration that gives 50% inhibition. As a reminder, the GI50 is the concentration at which growth is held to half of that of the control. With `C[C@@H](O)C(=O)CCCCC[C@@H]1NC(=O)[C@H]2CCCN2C(=O)[C@H](Cc2ccccc2)NC(=O)C(C)(C)NC1=O` [Compound 3], the IC50 against HDAC1 was 0.96 ± 0.6 µM; against HDAC6, more than 300 µM; with HeLa nuclear extract, 0.0081 ± 0.0019 µM; with T. gondii RH strain it was 0.0286 µM; on HDAC4, more than 100 µM; at HDAC8 it was 7.02 ± 1.53 µM. The IC50 against HDAC3/NCOR2 is 0.33 ± 0.01 µM. The GI50 with HeLa (Homo sapiens) was 0.17 ± 0.01 µM; with K562 [1], 0.018 ± 0.002 µM; in the assay with HEK293 (Homo sapiens, HEK293, 72 h) it was 0.04 ± 0.02 µM; in the assay on Jurkat [2] it was 0.048 ± 0.001 µM; in the assay on P. falciparum [3] it was 0.0174 ± 0.002 µM.
Consider `C[C@@H](O)C(=O)CCCCCC(=O)Nc1ccccc1` [Compound 11a, (R)-8-Hydroxy-7-oxo-N-phenylnonanamide], for which the IC50 at HDAC6 was 101 ± 2.9 µM; with HeLa nuclear extract it was more than 100 µM.
For the molecule `C[C@@H](O)C(=O)CCCCCCC(=O)Nc1ccccc1` [Compound 11b, (R)-9-Hydroxy-8-oxo-N-phenyldecanamide], the IC50 on HDAC1 was 7.9 ± 0.8 µM; on HDAC6, more than 300 µM; with HeLa nuclear extract it was 8.9 ± 0.5 µM; against HDAC4, more than 100 µM; against HDAC8 it was more than 100 µM; against HDAC3/NCOR2, 50.2 ± 4.7 µM. The GI50 is 37.9 ± 3.8 µM in the assay on P. falciparum [4]; more than 50 µM with HeLa (Homo sapiens); 35.6 ± 1.6 µM in the assay with HEK293 (Homo sapiens, HEK293, 72 h); 62.3 ± 5.8 µM in the assay with K562 [5]; 92 ± 1 µM in the assay on Jurkat [6].
`C[C@@H](O)C(=O)CCCCCCCC(=O)Nc1ccccc1` [Compound 11c, (R)-10-Hydroxy-9-oxo-N-phenylundecanamide]: the IC50 against HDAC6 is more than 300 µM; in the assay on HeLa nuclear extract, 27.3 ± 5.9 µM.
With `C[C@H](O)C(=O)CCCCCCC(=O)Nc1cccc(-c2cn(-c3ccccc3)nn2)c1` [Compound 11e, (S)-9-Hydroxy-8-oxo-N-(3-(1-phenyl-1H-1,2,3-triazol-4-yl)phenyl)decanamide], the IC50 against HDAC1 is 5.04 ± 0.07 µM; on HDAC6 it was more than 300 µM; in the assay on HeLa nuclear extract, 0.88 ± 0.05 µM; against HDAC4, more than 100 µM; against HDAC8, more than 100 µM; on HDAC3/NCOR2 it was 1.97 ± 0.03 µM. Besides, the GI50 in the assay on P. falciparum [4] was 4.85 ± 1.3 µM; with HeLa (Homo sapiens), 115 ± 25.3 µM; in the assay with HEK293 (Homo sapiens, HEK293, 72 h), 15.9 ± 1.13 µM; in the assay on K562 [5] it was 7.12 ± 0.9 µM; in the assay on Jurkat [6], 2.84 ± 0.7 µM; with normal B lymphocytes, more than 50 µM.
Regarding `C[C@H](O)C(=O)CCCCCCC(=O)Nc1ccccc1` [Compound 11f, (S)-9-Hydroxy-8-oxo-N-phenyldecanamide], the IC50 on HDAC6 was more than 300 µM; in the assay with HeLa nuclear extract, 77.1 ± 6.4 µM.
Regarding `CCC(=O)CCCCCCC(=O)Nc1ccccc1` [Compound 11g, 8-Oxo-N-phenyldecanamide], the results for the half-inhibitory concentration (IC50) at HDAC6 and with HeLa nuclear extract were more than 300 µM and more than 100 µM, respectively.
Regarding `CC(=O)O[C@H](C)C(=O)CCCCCCC(=O)Nc1ccccc1` [Compound 12b, (R)-3,10-Dioxo-10-(phenylamino)decan-2-yl Acetate], the GI50 with P. falciparum [4] is 40.1 ± 4.3 µM; in the assay on HeLa (Homo sapiens), more than 50 µM; in the assay on HEK293 (Homo sapiens, HEK293, 72 h), 36.3 ± 1.7 µM; with K562 [5], not below 100 µM; with Jurkat [6], not below 100 µM. Further, the values for the IC50 at HDAC6 and with HeLa nuclear extract were more than 300 µM and 63.8 ± 5.3 µM, respectively.
Turning to `CC(=O)O[C@H](C)C(=O)CCCCC[C@@H]1NC(=O)[C@H]2CCCN2C(=O)[C@H](Cc2ccccc2)NC(=O)C(C)(C)NC1=O` [Compound 13], the IC50 at HDAC1 is 0.39 ± 0.02 µM; against HDAC6, more than 300 µM; with HeLa nuclear extract, 0.11 ± 0.0008 µM; at HDAC4, more than 100 µM; at HDAC8 it was 1.87 ± 0.42 µM; on HDAC3/NCOR2, 0.35 ± 0.003 µM. For the same molecule, the GI50 in the assay on HeLa (Table 3, XTT) is 0.119 ± 0.008 µM; in the assay on K562 [1], 0.061 ± 0.002 µM; in the assay with HEK293 (Table 3, 72 h, XTT) it was 0.006 ± 0.001 µM; in the assay with Jurkat [2] it was 0.127 ± 0.011 µM; with P. falciparum [3] it was 0.0221 ± 0.001 µM.
At HDAC6, `C=CCC[C@@H]1NC(=O)[C@H]2CCCN2C(=O)[C@H](Cc2ccccc2)NC(=O)C(C)(C)NC1=O` [Compound 14] (cyclo([Aib]F[dP][Gly(But-3-enyl)])) yielded an IC50 of more than 300 µM.
